Measured values as given in patent publication EP2853565A1, “Glutamate receptor photomodulators” (Consejo Superior De Investigaciones Científicas, priority 2013, dated 2015).

How the values were obtained:
[1] = UV-VIS absorption spectrum before and after irradiation; type: physicochemical; settings: solution in DMSO, irradiation with ultraviolet light (380 nm)
[2] = molecular target: T1, rat metabotropic glutamate receptor 5 (mGlu5) (Rattus norvegicus, UniProt P31424); test: Single-cell calcium imaging (Fura-2) of quisqualate-evoked calcium oscillations, with photoisomerization by 390/490 nm light; type: cell-based; settings: 3 µM quisqualate
T1 construct: expressed in transfected cells; host or cells: HEK tsA201 cells
Procedure: Cell Culture and Transient Transfection: Human embryonic kidney (HEK) tsA201 cells were maintained at 37 °C and humidified atmosphere with 5% CO2; cells were grown in Dulbecco's Modified Eagle's Medium/Nutrient Mixture F-12 Ham (DMEM/F12, 1:1) medium, supplemented with 10% Fetal Bovine Serum (FBS) and antibiotics (1% Penicillin/Streptomycin). Once at confluence, culture flasks were washed twice with PBS and harvested with 300 µl Accutase. Expression of rat mGlu5a was induced by transient transfection of the cDNA-containing plasmid with X-tremeGENE 9 DNA Transfection Reagent. For transfection, cells were seeded at a concentration of 10^6 cells per well on 6-multiwell plates with a final volume of 2ml, and immediately transfected following manufacturer's instructions (100 µl mixture of 3:1 (µl:µg) of X-tremeGENE 9 DNA TR:mGlu5a plasmid in serum-free medium, 20 minutes incubation). About 24h after transfection, HEK tsA201 cells transiently overexpressing mGlu5a were seeded onto 15 mm glass coverslips pre-treated with Poly-L-Lysine to allow cell adhesion. Seeding concentration was maintained between 2/4·10^5 cells to get preconfluent cultures at the time of experiment. Transfected cells were used for single-cell calcium imaging experiments between 48 and 72 hours after transfection.
Single-cell Calcium Imaging: At the time of experiments, glass coverslips were mounted onto the recording chamber, and cells were loaded with the high affinity, ratiometric, intracellular calcium indicator Fura-2 AM; the dye was incubated during 30 minutes at 37°C and 5% CO2, at a final concentration of 10 µM in Ca^2+-free extracellular solution (ES, -Ca^2+). We used a ratiometric calcium sensor in order to avoid bleaching artefacts. Cells were then carefully rinsed with fresh ES, three to four times, before the recording chamber was placed on an inverted fully-motorised digital microscope (iMic 2000, Till Photonics, Gräfelfing, Germany). Images were acquired at room temperature with a UV Apochromat 40x oil objective lens (Olympus, Tokio, Japan). Fura-2 AM was excited consecutively for 10 ms at two different wavelengths (340 and 380 nm) as indicated by the manufacturer (Life Technologies, Paisley, UK) by using a Polychrome V light source (Till Photonics) and a 505 nm dichroic beamsplitter (Chroma Technology, Below Falls, VT, USA); emission at 510 nm was filtered by a D535/40nm emission filter (Chroma Technology) and finally collected by a cooled CCD camera (Interline Transfer IMAGO QE, Till Photonics). The fluorescence measurements (excitation + emission recording) were carried out every 2 seconds, and each measurement takes about 10-50 ms. The 340 and 380 nm images were stored by the TILLvisION imaging software (Till Photonics); the ratio of the emission when the sample was excited at 340 nm and the emission when it was excited at 380 nm was recorded and its mean value was calculated for each cell using the same software. Higher ratios correspond to higher intracellular calcium concentrations.
Agonists and allosteric modulators addition was obtained by carefully pipetting an initial 1:30 dilution of the compound directly into the accessory pool of the recording chamber, obtaining a final dilution of 1:1000 (total DMSO concentration was always lower than 1%). Activation of the agonist was induced in HEK tsA201 mGlu5a transfected cells with the glutamate analogue Quisqualic acid (3 µM). Only evoked, sustained intracellular calcium oscillations were taken into account as consistent cell responses to the application of the agonist; different responses (such as single-peak, peak-and-plateau, etc.), as well as spontaneously oscillating cells, were discarded as unsuitable for calculating the oscillatory frequency.
Solutions and Reagents: The extracellular solution (ES) used for single-cell calcium imaging contained: 140 mM NaCl, 5.4 mM KCI, 1 mM MgCl2, 10 mM HEPES, 10 mM glucose and 2 mM CaCl2 adjusted to pH 7.4 with NaOH. […]

[3] = Lipophilicity and solubility observed on handling (data not shown); type: physicochemical
Text: SIB-1757 (48) (Sigma Aldrich) is a moderate-affinity non-competitive antagonist of mGlu5 [J. Pharmacol. Exp. Thr., 1999, 290, 170-181]. […] However, we tested the molecule on a cell line heterogously expressing mGlu5, to ensure that the biological effect of SIB-1757 (48) on the target receptor is not light dependent. […] Moreover, we observed a high lipophilicity of the molecule, and also a low solubility, which make SIB-1757 (48) quite uneasy to handle for biological applications (not shown).

T1 sequence (P31424 21-1171 isoform P31424-2 limits assumed): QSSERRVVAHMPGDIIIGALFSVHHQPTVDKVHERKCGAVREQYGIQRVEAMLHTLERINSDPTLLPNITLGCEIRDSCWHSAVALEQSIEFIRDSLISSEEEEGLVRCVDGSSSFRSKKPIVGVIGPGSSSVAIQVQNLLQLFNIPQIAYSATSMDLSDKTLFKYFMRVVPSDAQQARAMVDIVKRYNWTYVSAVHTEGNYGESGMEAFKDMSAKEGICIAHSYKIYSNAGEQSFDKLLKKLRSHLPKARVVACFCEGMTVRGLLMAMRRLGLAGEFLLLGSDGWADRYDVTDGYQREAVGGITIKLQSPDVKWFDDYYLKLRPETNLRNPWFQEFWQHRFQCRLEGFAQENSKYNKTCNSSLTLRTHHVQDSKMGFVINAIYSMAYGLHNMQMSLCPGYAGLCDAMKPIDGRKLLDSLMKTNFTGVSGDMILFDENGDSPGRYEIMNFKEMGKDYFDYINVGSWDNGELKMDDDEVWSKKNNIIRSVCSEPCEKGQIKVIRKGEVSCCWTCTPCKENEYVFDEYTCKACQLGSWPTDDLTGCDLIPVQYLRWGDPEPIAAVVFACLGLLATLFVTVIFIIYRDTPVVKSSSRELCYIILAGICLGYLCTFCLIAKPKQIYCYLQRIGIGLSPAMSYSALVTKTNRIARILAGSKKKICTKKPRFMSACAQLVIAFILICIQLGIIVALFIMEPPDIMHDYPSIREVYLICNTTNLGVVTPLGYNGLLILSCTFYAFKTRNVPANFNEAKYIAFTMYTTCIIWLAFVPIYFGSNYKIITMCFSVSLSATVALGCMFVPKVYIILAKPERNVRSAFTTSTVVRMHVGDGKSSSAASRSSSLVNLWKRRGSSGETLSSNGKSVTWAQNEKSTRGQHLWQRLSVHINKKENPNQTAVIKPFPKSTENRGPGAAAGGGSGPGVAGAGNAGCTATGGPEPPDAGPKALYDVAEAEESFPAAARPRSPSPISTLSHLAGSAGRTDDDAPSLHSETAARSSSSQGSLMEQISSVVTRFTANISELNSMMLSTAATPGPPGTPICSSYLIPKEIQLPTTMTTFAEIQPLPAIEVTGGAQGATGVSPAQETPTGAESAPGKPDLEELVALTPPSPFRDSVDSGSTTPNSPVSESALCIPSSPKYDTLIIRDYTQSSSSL

With `Cc1ccc(O)c(/N=N/c2ccccc2)n1` [SIB-1757] the “photoswitch in the UV-VIS absorption spectrum” value [1] was “did not reveal any photoswitch”, the “effect on mGlu5 response (calcium oscillations)” value ([2]; HEK tsA201 cells) was “clearly an antagonist of mGlu5” and the “light dependence of the activity on mGlu5” value ([2]; UV (380/390 nm) and visible (500/490 nm) light) was “not light-dependent”. The lipophilicity [3] was “high” and the solubility [3] was “low”.
